In patent publication US20140349941A1, “AROMATIC-CATIONIC PEPTIDES AND USES OF SAME” (Cornell University, priority 2011, published 2014):

Columns and labels:
[1] = biological target: cyt c (Homo sapiens, UniProt P99999); assay: Cyclic voltammetry of cyt c in solution
[2] = biological target: cyt c heme (Homo sapiens, UniProt P99999); assay: Circular dichroism of cyt c Soret band; type: binding; settings: negative peak at 415 nm without peptide; FIG. 4
Method: Circular dichroism (Olis spectropolarimeter, DSM20) was carried out to monitor Soret band (negative peak at 415 nm), as a probe for the π-π* heme environment in cyt c (FIG. 4). […] The increase in π-π* interaction around the heme would enhance electron tunneling which would be favorable for electron diffusion.

[3] = system: isolated rat kidney mitochondria; assay: O2 consumption of isolated rat kidney mitochondria (Oxygraph); type: biochemical
Method: (§1) Fresh mitochondria were isolated from rat kidney as described previously. Electron flux was measured by O2 consumption (Oxygraph Clark electrode) as previously described using different substrates for C1 (glutamate/malate), C2 (succinate), and C3 (TMPD/ascorbate). Assays were carried out under low substrate conditions in order to avoid saturating the enzyme reactions. ATP production in isolated mitochondria was determined kinetically using the luciferase method (Biotherma) in a 96-well luminescence plate reader (Molecular Devices). The initial maximal rate for ATP synthesis was determined over the first minute.
Oxygen consumption of isolated rat kidney mitochondria was determined using the Oxygraph (FIG. 5). Rates of respiration were measured in the presence of different concentrations of SS-31 in state 2 (400 μM ADP only), state 3 (400 μM ADP and 500 μM substrates) and state 4 (substrates only). All experiments were done in triplicate with n=4-7.
(§2) SS-20 or SS-31 was added at 100 μM concentrations to isolated mitochondria in respiration buffer containing 0.5 mM succinate (complex II substrate) and 400 μM ADP. Similar increases in O2 consumption were observed when low concentrations of complex I substrates (glutamate/malate) were used (data not shown).
SS-20 or SS-31 was added at 10 μM or 100 μM concentrations to isolated mitochondria in respiration buffer containing glutamate/malate (complex I substrate), 0.5 mM succinate (complex II substrate) or 3 μM TMPD/1 mM ascorbate (direct reductant of cyt C). 400 μM ADP was added to initiate State 3 respiration.

[4] = system: isolated mitochondria; assay: ATP synthesis in isolated mitochondria; type: biochemical, rat
Method: as §1
The rate of mitochondrial ATP synthesis was determined by measuring ATP in respiration buffer collected from isolated mitochondria 1 min after addition of […] (FIG. 6). ATP was assayed by HPLC. All experiments were carried out in triplicate, with n=3.
as §2
Increase in electron flux in the electron transport chain can either result in increase in ATP synthesis or increase in electron leak and generation of free radicals. ATP synthesis in isolated mitochondria was assayed by HPLC.

[5] = system: cyt c-depleted mitoplasts; assay: Respiration in cytochrome c-depleted mitoplasts; type: biochemical, rat
Method: Rates of respiration were measured in the presence of 500 μM Succinate with or without 100 μM SS-31. The experiment was carried out in triplicate, with n=3.
A model of cyt C tightly bound to mitochondrial cardiolipin was used to investigate interaction of SS-31 with cytochrome c-CL complex in mitochondria. After removal of outer membrane with digitonin, mitoplasts were washed with 120 mM KCl to remove all free and electrostatically associated cytochrome c, leaving only cytochrome c tightly bound to CL.

[6] = biological target: heme environment of cytochrome c (with CL) (Homo sapiens, UniProt P99999); assay: Soret CD spectrum of cyt C in the presence of CL; type: binding; settings: cyt C 10 μM; CL 30 μg/ml; peptide 10 μM; 20 mM HEPES pH 7.5, 25° C.; FIG. 24
Method: Circular dichroism (CD) was carried out to examine the effects of the peptides on protecting the heme environment of cyt C from the acyl chain of CL. For heme proteins, the Soret CD spectrum is strictly correlated with the heme pocket conformation. In particular, the negative 416-420 nm Cotton effect is considered diagnostic of Fe(III)-Met80 coordination in native cyt C (Santucci and Ascoli, 1997). […] CD spectra were obtained using AVIV CD Spectrometer Model 410.
Changes in the Soret CD spectrum of cyt C (10 μM) were recorded in the absence (dotted line) and presence (dashed line) of 30 μg/ml CL, plus addition of different peptides (10 μM) (solid line) (FIG. 24). CD measurements were carried out using 20 mM HEPES, pH 7.5, at 25° C. and expressed as molar ellipticity (θ) (m Deg).

[7] = biological target: cytochrome c (with CL) (Homo sapiens, UniProt P99999); assay: Cytochrome c reduction inhibited by CL; type: biochemical
Method: Cytochrome c is a carrier of electrons between respiratory complex III and IV in mitochondria. Cytochrome c is reduced (Fe^2+) after it accepts an electron from cytochrome c reductase, and it is then oxidized to Fe^3+ by cytochrome c oxidase.
Reduction of cytochrome c (20 μM) was induced by the addition of glutathione (500 μM) in the absence or presence of CL (100 μg/ml) (FIG. 25A). Reduction of cytochrome c was monitored by absorbance at 550 nm using a 96-well UV-VIS plate reader (Molecular Devices). Addition of CL decreased the rate of cytochrome c reduction by half.

[8] = biological target: cytochrome c-CL complex (Homo sapiens, UniProt P99999); assay: Cytochrome c/CL peroxidase activity (amplex red); type: biochemical
Text: The six coordination of the heme in cytochrome c prevents direct interaction of H2O2 with the catalytic metal site, and native cytochrome c in solution is a poor peroxidase. Upon interaction with CL, cytochrome c undergoes a structural change with rupture of the Fe-Met80 coordination. […] The mechanism of action of cytochrome c peroxidase is similar to that of other peroxidases, such as horse radish peroxidase (HRP). Thus it is possible to use the amplex red-HRP reaction to investigate cytochrome c peroxidase activity. In the presence of peroxidase, amplex red (AR) reacts with H2O2 to form the red-fluorescent oxidation product, resorufin (Ex/Em=571/585).
Cytochrome c (2 μM) was mixed with CL (25 μg/ml) and 10 μM H2O2 in 20 mM HEPES, pH 7.4. Amplex red (50 μM) was then added and fluorescence emission monitored in real time using Hitachi F4500 fluorescence spectrophotometer. Addition of amplex red elicited rapid increase in fluorescence signal due to resorufin formation, providing direct evidence for peroxidase activity of cytochrome c/CL complex (FIG. 29A).

Chain of cyt c (P99999 2-105 limits assumed, species assumed): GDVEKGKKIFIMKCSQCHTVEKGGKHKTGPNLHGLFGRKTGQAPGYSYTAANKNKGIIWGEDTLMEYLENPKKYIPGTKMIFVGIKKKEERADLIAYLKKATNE
Chain of cytochrome c-CL complex (P99999 2-105 limits assumed, species assumed, one chain of several): as the sequence (P99999 2-105 limits assumed, species assumed) above
Chain of cytochrome c (with CL) (P99999 2-105 limits assumed, species assumed): as above
Chain of cyt c heme (P99999 2-105 limits assumed, species assumed): as above
Chain of heme environment of cytochrome c (with CL) (P99999 2-105 limits assumed, species assumed): as above

D-Arg-2′6′Dmt-Lys-Phe-NH2 [SS-31]
current for reduction and oxidation processes of cyt c ([1]; Au working electrode, Ag/AgCl reference, FIG. 2 upper panel): increased current for both reduction and oxidation processes | reduction/oxidation potentials of cyt c ([1]; FIG. 2 upper panel): does not alter reduction/oxidation potentials | increase of current (electron diffusion rate) ([1]; cyt c:SS31=1:2, TBE buffer, FIG. 2 lower panel): ~200% | position of Soret band negative peak after red shift [2]: 440 nm | O2 consumption in state 3 respiration ([3]; glutamate/malate, succinate or TMPD/ascorbate, 400 μM ADP, FIG. 26): increased O2 consumption in state 3 respiration | electron flux, as measured by O2 consumption ([3]; peptide 10 μM or 100 μM, complex I, complex II substrate or TMPD/ascorbate, FIG. 26): can promote electron flux | electron flux, as measured by O2 consumption ([3]; peptide 100 μM, 0.5 mM succinate, 400 μM ADP, FIG. 14): can promote electron flux | electron transfer to oxygen (rates of respiration) ([3]; state 2, state 3 and state 4, different concentrations, FIG. 5): promoted electron transfer to oxygen without uncoupling mitochondria | rate of mitochondrial ATP synthesis ([4]; ATP by HPLC 1 min after addition of 400 mM ADP, FIG. 6): dose-dependently increased the rate of ATP synthesis | ATP synthesis ([4]; assayed by HPLC, FIG. 27): dose-dependently increased ATP synthesis | rate of ATP production ([4]; mitochondria energized with low concentrations of succinate, FIG. 15): significant increase in the rate of ATP production | mitochondrial O2 consumption (respiration) ([5]; 500 μM succinate, 100 μM peptide, once-frozen rat kidney mitochondria, FIG. 7): Enhances Respiration in Cytochrome C-Depleted Mitoplasts | complex II respiration in mitoplasts ([5]; cytochrome c tightly bound to CL, digitonin, 120 mM KCl wash, dose-dependent, FIG. 28): enhances complex II respiration | disappearance of the negative Cotton effect caused by CL (heme environment of cytochrome c) [6]: Protect the Heme Environment of Cytochrome C from the Acyl Chain of CL | inhibitory effect of CL on kinetics of cytochrome c reduction ([7]; 500 μM GSH or 50 μM ascorbate, FIG. 25B): dose-dependently overcame the inhibitory effect of CL | inhibitory action of CL on rate of cytochrome c reduction ([7]; cytochrome c 20 μM, glutathione 500 μM, CL 100 μg/ml, peptide 20, 40 or 100 μM, FIG. 25A): dose-dependently prevented the inhibitory action of CL | kinetics of cytochrome c peroxidase activity ([8]; FIG. 29B): dose-dependently reduced the kinetics of cytochrome c peroxidase activity | rate of amplex red peroxidation ([8]; cytochrome c 2 μM, CL 25 μg/ml, 10 μM H2O2, amplex red 50 μM, FIG. 29A): decreased the rate of amplex red peroxidation | peroxidase activity in cytochrome c/CL complex ([8]; figure legend FIG. 29A-C, comparison at a fixed concentration of 10 μM (FIG. 29C)): preventing peroxidase activity in cytochrome c/CL complex
